The text below walks through data of US11077090B2, “Compounds and compositions and uses thereof” (Sunovion Pharmaceuticals Inc., priority 2016, dated 2021).

The subject of this experiment is compound-treated mice. The experiment in a line: Neuropharmacological assay (SmartCube): behavioral activity signature and minimal effective dose. The experiment is classed as in vivo. Conditions: for minimal effective dose: Mus musculus, ip, MED = dose having 50% or more total activity; for AD: ADHD (probability of activity signature) / AG: analgesic (probability of activity signature) / AX: anxiolytic (probability of activity signature) / CE: cognitive enhancer (probability of activity signature) / DP: anti-depressant (probability of activity signature) / MS: mood stabilizer (probability of activity signature) / PS: anti-psychotic (probability of activity signature) / SD: sedative hypnotic (probability of activity signature) / UN: uncharacterized CNS activity (probability of activity signature): i.p. 15 min before test, most efficacious dose(s). An excerpt: Neurosci. 2011 Sep. 9; 5:103 (doi: 10.3389/fnins.2011.00103) (“Roberds”). As reported in Roberds, because psychiatric diseases generally result from disorders of cell-cell communication or circuitry, intact systems are useful in detecting improvement in disease-relevant endpoints. These endpoints are typically behavioral in nature, often requiring human observation and interpretation. To facilitate testing of multiple compounds for behavioral effects relevant to psychiatric disease, PsychoGenics, Inc. (Tarrytown, N.Y., “PGI”) developed SmartCube™, an automated system in which behaviors of compound-treated mice are captured by digital video and analyzed with computer algorithms. (D. Brunner et al., Drug Discov. Today 2002, 7:S107-S112). PGI Analytical Systems uses data from SmartCube™ to compare the behavioral signature of a test compound to a database of behavioral signatures obtained using a large set of diverse reference compounds. (The composition of the database as well as validation of the method is further described in Roberds). In this way, the neuropharmacological effects of a test compound can be predicted by similarity to major classes of compounds, such as antipsychotics, anxiolytics and antidepressants.
The SmartCube™ system produces an activity signature indicating the probability that the activity of the test compound at the administered dose matches a given class of neuropharmacological agents. (See, e.g., Roberds, FIGS. 2 and 3). The test compound is simultaneously compared against multiple classes of agents; thus, a separate probability is generated for each behavioral effect measured (e.g., anxiolytic activity, analgesic activity, etc.). In the table below, these probabilities are reported for each behavioral effect measured as follows:
where LOQ is the limit of quantification.
Provided compounds were dissolved in a mixture of Pharmasolve™ (N-methyl-2-pyrrolidone), polyethylene glycol and propylene glycol, and were injected i.p. 15 min. before the behavioral test. For each compound, injections were administered at 3 different doses. For each behavioral effect measured, results for the most efficacious dose(s) are presented. In the table below, DP: anti-depressant; AX: anxiolytic; SD: sedative hypnotic; PS: anti-psychotic; MS: mood stabilizer; AD: ADHD; CE: cognitive enhancer; AG: analgesic; UN: uncharacterized CNS activity.
The potency of many of the compounds in the table was also determined in the SmartCube™ system. Test compounds were routinely examined at dose levels of 0.3, 1, 3, 10 and 30 mg per kg (mpk), although the dose range was increased or decreased if necessary to obtain a full dose response curve. A compound's minimal effective dose (MED) is a measure of the compounds potency. The MED was defined as the dose (in mpk) having 50% or more total activity in SmartCube.

[1] abbreviates: read-out: Potency: minimal effective dose (MED).
Where [2] appears, read: read-out: Potency: minimal effective dose (MED), binned.

The structures appear in SMILES notation. Like-named read-outs stand apart in the source and are kept apart here.

Regarding `Cl.NC1COCc2ccc3ncccc3c21` (stereo not drawn) [Example 15], the “AD: ADHD (probability of activity signature)” value (“AD: ADHD” for short) is “+ (LOQ ≤ + <5%)”, the “AG: analgesic (probability of activity signature)” value (shortened to “AG: analgesic”) is “+ (LOQ ≤ + <5%)”, the “AX: anxiolytic (probability of activity signature)” value (“AX: anxiolytic” for short) is “+ (LOQ ≤ + <5%)” and the “CE: cognitive enhancer (probability of activity signature)” value (“CE: cognitive enhancer” for short) is “+ (LOQ ≤ + <5%)”. In addition, the “DP: anti-depressant (probability of activity signature)” value (“DP: anti-depressant” for short) is given as “+ (LOQ ≤ + <5%)”, the “MS: mood stabilizer (probability of activity signature)” value (from here on “MS: mood stabilizer”) is “+ (LOQ ≤ + <5%)”, the “PS: anti-psychotic (probability of activity signature)” value (from here on “PS: anti-psychotic”) was “+ (LOQ ≤ + <5%)” and the “SD: sedative hypnotic (probability of activity signature)” value (“SD: sedative hypnotic” for short) is on record as “+ (LOQ ≤ + <5%)”. The “UN: uncharacterized CNS activity (probability of activity signature)” value (“UN: uncharacterized CNS activity” below) is reported as “+ (LOQ ≤ + <5%)”. Under setting [1], the minimal effective dose was > 30 mg/kg.

As to `C[C@H]1OCc2c(Cl)cccc2[C@@H]1N.Cl` [Example 87], the “AD: ADHD” value was “+ (LOQ ≤ + <5%)”, the “AG: analgesic” value is given as “++ (5% ≤ ++ <25%)”, the “AX: anxiolytic” value is “++ (5% ≤ ++ <25%)” and the “CE: cognitive enhancer” value is on record as “++ (5% ≤ ++ <25%)”. Besides, the “DP: anti-depressant” value is on record as “++ (5% ≤ ++ <25%)”, the “MS: mood stabilizer” value is listed as “+ (LOQ ≤ + <5%)”, the “PS: anti-psychotic” value is reported as “++ (5% ≤ ++ <25%)” and the “SD: sedative hypnotic” value is recorded as “++ (5% ≤ ++ <25%)”. In addition, the “UN: uncharacterized CNS activity” value was “+++ (25% ≤ +++ <50%)”. Besides, under setting [1], the minimal effective dose lay in the range of 3 to 10 mg/kg.

For `Cc1ccc2c(c1)CO[C@H](C)[C@H]2N` [Example 252], the “AD: ADHD” value is recorded as “+ (LOQ ≤ + <5%)”, the “AG: analgesic” value was “+ (LOQ ≤ + <5%)”, the “AX: anxiolytic” value is reported as “+ (LOQ ≤ + <5%)” and the “CE: cognitive enhancer” value is listed as “+ (LOQ ≤ + <5%)”. In addition, the “DP: anti-depressant” value is given as “++ (5% ≤ ++ <25%)”, the “MS: mood stabilizer” value is “++ (5% ≤ ++ <25%)”, the “PS: anti-psychotic” value is recorded as “++ (5% ≤ ++ <25%)” and the “SD: sedative hypnotic” value is given as “++ (5% ≤ ++ <25%)”. Moreover, the “UN: uncharacterized CNS activity” value is listed as “++++ (50% ≤ ++++)”. Moreover, under setting [2], the minimal effective dose was < 3 mg/kg.

As for `Cc1cccc2c1CO[C@@H](C)[C@H]2N.Cl` [Example 97], the “AD: ADHD” value is “+ (LOQ ≤ + <5%)”, the “AG: analgesic” value is reported as “+ (LOQ ≤ + <5%)”, the “AX: anxiolytic” value is recorded as “++ (5% ≤ ++ <25%)” and the “CE: cognitive enhancer” value was “++ (5% ≤ ++ <25%)”. Moreover, the “DP: anti-depressant” value is “+ (LOQ ≤ + <5%)”, the “MS: mood stabilizer” value is “+ (LOQ ≤ + <5%)”, the “PS: anti-psychotic” value is listed as “++ (5% ≤ ++ <25%)” and the “SD: sedative hypnotic” value is “++ (5% ≤ ++ <25%)”. The “UN: uncharacterized CNS activity” value is listed as “++++ (50% ≤ ++++)”. Further, the minimal effective dose under setting [1] was in the range of 3 to 10 mg/kg.

Turning to `Cc1ccc2c(c1C)C(N(C)C)COC2.Cl` (stereo not drawn) [Example 61], the “AD: ADHD” value is given as “+ (LOQ ≤ + <5%)”, the “AG: analgesic” value is listed as “++ (5% ≤ ++ <25%)”, the “AX: anxiolytic” value is “++ (5% ≤ ++ <25%)” and the “CE: cognitive enhancer” value is “++ (5% ≤ ++ <25%)”. The “DP: anti-depressant” value was “+ (LOQ ≤ + <5%)”, the “MS: mood stabilizer” value was “+ (LOQ ≤ + <5%)”, the “PS: anti-psychotic” value is given as “++ (5% ≤ ++ <25%)” and the “SD: sedative hypnotic” value was “+ (LOQ ≤ + <5%)”. Further, the “UN: uncharacterized CNS activity” value is recorded as “++++ (50% ≤ ++++)”. For the same molecule, the minimal effective dose under setting [1] is 10 to 30 mg/kg.

Take `CC[C@@H]1OCc2ccc(F)cc2[C@@H]1N` [Example 187]: the “AD: ADHD” value was “+ (LOQ ≤ + <5%)”, the “AG: analgesic” value is “++ (5% ≤ ++ <25%)”, the “AX: anxiolytic” value is listed as “++ (5% ≤ ++ <25%)” and the “CE: cognitive enhancer” value is on record as “++ (5% ≤ ++ <25%)”. Further, the “DP: anti-depressant” value is recorded as “+ (LOQ ≤ + <5%)”, the “MS: mood stabilizer” value is listed as “+ (LOQ ≤ + <5%)”, the “PS: anti-psychotic” value is “+++ (25% ≤ +++ <50%)” and the “SD: sedative hypnotic” value was “+ (LOQ ≤ + <5%)”. Further, the “UN: uncharacterized CNS activity” value is “++++ (50% ≤ ++++)”. For the same molecule, under setting [2], the minimal effective dose is < 3 mg/kg.

For the molecule `Cc1ccc(C)c2c1COC[C@@H]2N` (single isomer, unassigned) [Example 166], the “AD: ADHD” value was “+ (LOQ ≤ + <5%)”, the “AG: analgesic” value is “+ (LOQ ≤ + <5%)”, the “AX: anxiolytic” value was “++ (5% ≤ ++ <25%)” and the “CE: cognitive enhancer” value was “++ (5% ≤ ++ <25%)”. Further, the “DP: anti-depressant” value was “+ (LOQ ≤ + <5%)”, the “MS: mood stabilizer” value is on record as “+ (LOQ ≤ + <5%)”, the “PS: anti-psychotic” value is listed as “++ (5% ≤ ++ <25%)” and the “SD: sedative hypnotic” value is “++ (5% ≤ ++ <25%)”. Moreover, the “UN: uncharacterized CNS activity” value is recorded as “++++ (50% ≤ ++++)”. Further, the minimal effective dose under setting [2] was 3 to 10 mg/kg.

For `CCc1ccc2c(c1)[C@H](N)[C@H](C)OC2.Cl` [Example 219], the “AD: ADHD” value was “+ (LOQ ≤ + <5%)”, the “AG: analgesic” value is “++ (5% ≤ ++ <25%)”, the “AX: anxiolytic” value is “++ (5% ≤ ++ <25%)” and the “CE: cognitive enhancer” value is listed as “++ (5% ≤ ++ <25%)”. Besides, the “DP: anti-depressant” value is listed as “+ (LOQ ≤ + <5%)”, the “MS: mood stabilizer” value was “+ (LOQ ≤ + <5%)”, the “PS: anti-psychotic” value was “+ (LOQ ≤ + <5%)” and the “SD: sedative hypnotic” value is recorded as “+ (LOQ ≤ + <5%)”. The “UN: uncharacterized CNS activity” value was “++++ (50% ≤ ++++)”. In addition, the minimal effective dose under setting [2] lay in the range of 3 to 10 mg/kg.

For the molecule `CCN(C)C(=O)Oc1ccc2c(c1)CO[C@H](C)[C@H]2N(C)C.Cl` [Example 286], the “AD: ADHD” value is reported as “+ (LOQ ≤ + <5%)”, the “AG: analgesic” value was “+ (LOQ ≤ + <5%)”, the “AX: anxiolytic” value is recorded as “+ (LOQ ≤ + <5%)” and the “CE: cognitive enhancer” value is “+ (LOQ ≤ + <5%)”. Further, the “DP: anti-depressant” value is on record as “++ (5% ≤ ++ <25%)”, the “MS: mood stabilizer” value is on record as “++ (5% ≤ ++ <25%)”, the “PS: anti-psychotic” value is recorded as “+ (LOQ ≤ + <5%)” and the “SD: sedative hypnotic” value was “++ (5% ≤ ++ <25%)”. In addition, the “UN: uncharacterized CNS activity” value is “++ (5% ≤ ++ <25%)”. The minimal effective dose under setting [2] was 10 to 30 mg/kg.
